Tested on: crabgrass
Assay: Greenhouse pot test, postemergent spray, visual control rating converted to percent control
Type: in vivo
Outline: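 Potted plants in soilless greenhouse medium were sprayed at 43.46 gallons of spray solution/acre and kept in the greenhouse. Effects were rated visually on a 1–9 scale (1 = no control, 9 = plant death) at 24, 48 and 72 HAT and 7, 14 and 21 DAT, then converted to percent control.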

O=C(O)c1c(Cl)ccc2cc(Cl)cnc12 [Quinclorac, 3,7-dichloro-8-quinolinecarboxylic acid]
% Control Crabgrass (Test 1, 7 DAT, 0.18 lbs/A): 44.4%
Control (1-9) Crabgrass (Test 1, 7 DAT, 0.18 lbs/A): 4
% Control Crabgrass (Test 1, 7 DAT, 0.375 lbs/A): 44.4%
Control (1-9) Crabgrass (Test 1, 7 DAT, 0.375 lbs/A): 4
% Control Crabgrass (Test 1, 7 DAT, 0.75 lbs/A): 44.4%
Control (1-9) Crabgrass (Test 1, 7 DAT, 0.75 lbs/A): 4
% Control Crabgrass (Test 1, 14 DAT, 0.18 lbs/A): 77.8%
Control (1-9) Crabgrass (Test 1, 14 DAT, 0.18 lbs/A): 7
% Control Crabgrass (Test 1, 14 DAT, 0.375 lbs/A): 55.6%
Control (1-9) Crabgrass (Test 1, 14 DAT, 0.375 lbs/A): 5
% Control Crabgrass (Test 1, 14 DAT, 0.75 lbs/A): 55.6%
Control (1-9) Crabgrass (Test 1, 14 DAT, 0.75 lbs/A): 5
% Control Crabgrass (Test 1, 24 HAT, 0.18 lbs/A): 22.2%
Control (1-9) Crabgrass (Test 1, 24 HAT, 0.18 lbs/A): 2
% Control Crabgrass (Test 1, 24 HAT, 0.375 lbs/A): 22.2%
Control (1-9) Crabgrass (Test 1, 24 HAT, 0.375 lbs/A): 2
% Control Crabgrass (Test 1, 24 HAT, 0.75 lbs/A): 22.2%
Control (1-9) Crabgrass (Test 1, 24 HAT, 0.75 lbs/A): 2
% Control Crabgrass (Test 1, 48 HAT, 0.18 lbs/A): 33.3%
Control (1-9) Crabgrass (Test 1, 48 HAT, 0.18 lbs/A): 3
% Control Crabgrass (Test 1, 48 HAT, 0.375 lbs/A): 44.4%
Control (1-9) Crabgrass (Test 1, 48 HAT, 0.375 lbs/A): 4
% Control Crabgrass (Test 1, 48 HAT, 0.75 lbs/A): 44.4%
Control (1-9) Crabgrass (Test 1, 48 HAT, 0.75 lbs/A): 4
% Control Crabgrass (Test 2, 7 DAT, 0.18 lbs/A): 33.3%
Control (1-9) Crabgrass (Test 2, 7 DAT, 0.18 lbs/A): 3
% Control Crabgrass (Test 2, 7 DAT, 0.375 lbs/A): 77.8%
Control (1-9) Crabgrass (Test 2, 7 DAT, 0.375 lbs/A): 7
% Control Crabgrass (Test 2, 7 DAT, 0.75 lbs/A): 77.8%
Control (1-9) Crabgrass (Test 2, 7 DAT, 0.75 lbs/A): 7
% Control Crabgrass (Test 2, 14 DAT, 0.18 lbs/A): 55.6%
Control (1-9) Crabgrass (Test 2, 14 DAT, 0.18 lbs/A): 5
% Control Crabgrass (Test 2, 14 DAT, 0.375 lbs/A): 77.8%
Control (1-9) Crabgrass (Test 2, 14 DAT, 0.375 lbs/A): 7
% Control Crabgrass (Test 2, 14 DAT, 0.75 lbs/A): 88.9%
Control (1-9) Crabgrass (Test 2, 14 DAT, 0.75 lbs/A): 8
% Control Crabgrass (Test 2, 24 HAT, 0.18 lbs/A): 33.3%
Control (1-9) Crabgrass (Test 2, 24 HAT, 0.18 lbs/A): 3
% Control Crabgrass (Test 2, 24 HAT, 0.375 lbs/A): 22.2%
Control (1-9) Crabgrass (Test 2, 24 HAT, 0.375 lbs/A): 2
% Control Crabgrass (Test 2, 24 HAT, 0.75 lbs/A): 22.2%
Control (1-9) Crabgrass (Test 2, 24 HAT, 0.75 lbs/A): 2
% Control Crabgrass (Test 2, 72 HAT, 0.18 lbs/A): 44.4%
Control (1-9) Crabgrass (Test 2, 72 HAT, 0.18 lbs/A): 4
% Control Crabgrass (Test 2, 72 HAT, 0.375 lbs/A): 33.3%
Control (1-9) Crabgrass (Test 2, 72 HAT, 0.375 lbs/A): 3
% Control Crabgrass (Test 2, 72 HAT, 0.75 lbs/A): 44.4%
Control (1-9) Crabgrass (Test 2, 72 HAT, 0.75 lbs/A): 4
% Control Crabgrass (Test 4, 7 DAT, 0.18 lbs/A): 11.1%
Control (1-9) Crabgrass (Test 4, 7 DAT, 0.18 lbs/A): 1
% Control Crabgrass (Test 4, 7 DAT, 0.375 lbs/A): 22.2%
Control (1-9) Crabgrass (Test 4, 7 DAT, 0.375 lbs/A): 2
% Control Crabgrass (Test 4, 7 DAT, 0.75 lbs/A): 22.2%
Control (1-9) Crabgrass (Test 4, 7 DAT, 0.75 lbs/A): 2
% Control Crabgrass (Test 4, 14 DAT, 0.18 lbs/A): 22.2%
Control (1-9) Crabgrass (Test 4, 14 DAT, 0.18 lbs/A): 2
% Control Crabgrass (Test 4, 14 DAT, 0.375 lbs/A): 33.3%
Control (1-9) Crabgrass (Test 4, 14 DAT, 0.375 lbs/A): 3
% Control Crabgrass (Test 4, 14 DAT, 0.75 lbs/A): 44.4%
Control (1-9) Crabgrass (Test 4, 14 DAT, 0.75 lbs/A): 4

Source: patent publication US20040266623A1, “SYNERGISTIC QUINCLORAC HERBICIDAL COMPOSITIONS” (priority 2003, published 2004)
